US10668018B2, “Pharmaceutical compositions” (MEXICHEM AMANCO HOLDINGS S.A. DE C.V., priority 2011, dated 2020)

What was measured:
[1] = Amount of ethanol required to dissolve the drug in propellant/ethanol mixture (visual, first clear solution); format: physicochemical; details: for ethanol required to dissolve the drug: 20° C., drug amount equivalent to MDI dose of 50 μg (FP) or 250 μg (BDP); for Ethanol Content in R-134a / Ethanol Content in R-152a: amount required to dissolve the drug completely, BDP 250 μg, FP 50 μg dose
Method: A series of glass vials were charged with 0.00869 g (8.69 mg) of fluticasone propionate. R-152a propellant was then added to each vial, the amount being decreased from one vial to the next to compensate for increasing amounts of ethanol. An amount of ethanol was then added to each vial, with the amount being increased in increments from one vial to the next, in order to determine the minimum amount of ethanol required to dissolve the fluticasone propionate in the R-152a/ethanol mixture. […] The amount of ethanol in the R-152a/ethanol mixture was increased from 1% by weight on the total weight of the R-152a/ethanol mixture in 1% w/w increments. After adding the ethanol, each vial was sonicated in an effort to dissolve the drug, stored at 20° C. and then examined visually to determine whether the drug had in fact dissolved. […] It was determined that 5.0% w/w of ethanol was required to dissolve the fluticasone propionate. […] R-152a propellant was then added to each vial, the amount being decreased from one vial to the next to compensate for increasing amounts of ethanol. […] The amount of ethanol in the R-152a/ethanol mixture was increased from 1% by weight on the total weight of the R-152a/ethanol mixture in 1% w/w increments. After adding the ethanol, each vial was sonicated in an effort to dissolve the drug, stored at 20° C. and then examined visually to determine whether the drug had in fact dissolved. […] Exactly the same procedure as described in Example 3 above was used except that R-134a was used as the propellant. It was determined that 13.0% w/w of ethanol (% by weight on the total weight of the R-134a/ethanol mixture) was required to dissolve the fluticasone propionate. […] Exactly the same procedure as described in Example 4 above was used except that R-134a was used as the propellant. […] The drug was weighed directly into standard aluminium 19 mL cans (C128, Presspart, Blackburn, UK), to which an appropriate amount of ethanol was added to aid solubility of the drug on addition of the propellant. The slurry of the drug in ethanol was then sonicated for 60 minutes in order to disperse the drug in the ethanol. The cans were then crimped with a 50 μL valve (Bespak, Kings Lynn, UK) following which R-152a or R-134a as appropriate was filled into the cans through the valve using a manual Pamasol crimper/filler (Pamasol, Switzerland). […] Finally, all the cans were quarantined for 14 days, valve down, at 22° C./44% RH before commencing testing of the final formulations.

[2] = Solubility of drug in liquefied propellant (pressure solubility apparatus, HPLC); format: physicochemical; details: stored at 20° C. for 24 hours, n=3
Method: An excess of active pharmaceutical ingredient was placed into a pressure cylinder (300 cm^3 stainless steel cylinder from Whitey, Inc.). A vacuum was applied to the cylinder, which was then chilled using liquid nitrogen. Approximately 80 grams of either R-152a or R-134a propellant was charged into the cylinder, which was then stored at 20° C. for 24 hours.
A filtration unit comprising a 15 μm filter in-line with a 5 μm filter was connected to the cylinder containing the excess of drug in propellant. A second receiver pressure cylinder (150 cm^3 stainless steel cylinder from Whitey, Inc.) was exposed to a vacuum and chilled using liquid nitrogen, which was then connected to the filtration unit. Approximately 30 grams of liquid propellant containing drug in excess was passed through the filtration unit and collected in the receiver pressure cylinder.
A modified piece of 3.2 mm (⅛″) tubing was connected to the end of the receiver pressure cylinder, which was then attached to the stem of a continuous valve crimped on to a glass bottle. The 3.2 mm (⅛″) tubing was used to depress the stem of the valve and therefore, enable the contents of the receiver pressure cylinder to be collected in the glass bottle. […] The glass bottle was re-weighed and the mass of drug collected in the DUSA was determined by high performance liquid chromatography (HPLC). […]

| SMILES | ethanol required to dissolve the drug ([1]; R-134a/ethanol mixture) | ethanol required to dissolve the drug ([1]; R-152a/ethanol mixture) | Ethanol Content in R-134a [1] | Ethanol Content in R-152a [1] | mean drug solubility (± S.D.) ([2]; propellant comprising 100% R-134a) | mean drug solubility (± S.D.) ([2]; propellant comprising 100% R-152a) |
| --- | --- | --- | --- | --- | --- | --- |
| CCC(=O)OCC(=O)[C@@]1(OC(=O)CC)[C@@H](C)C[C@H]2[C@@H]3CCC4=CC(=O)C=C[C@]4(C)[C@@]3(Cl)[C@@H](O)C[C@@]21C [beclomethasone dipropionate] | 4.0 % w/w | 2.0 % w/w | 4.0 % w/w | 2.0 % w/w | – | – |
| CCC(=O)O[C@]1(C(=O)SCF)[C@H](C)C[C@H]2[C@@H]3C[C@H](F)C4=CC(=O)C=C[C@]4(C)[C@@]3(F)[C@@H](O)C[C@@]21C [fluticasone propionate] | 13.0 % w/w | 5.0 % w/w | 13.0 % w/w | 5.0 % w/w | 14.27 ± 1.66 µg/g | 73.55 ± 3.98 µg/g |
